Laboratory results published in patent US9868705B2, “Tetra-aryl cyclobutane inhibitors of androgen receptor action for the treatment of hormone refractory cancer” (The Board of Trustees of the University of Illinois, priority 2013, dated 2018).
Residue numbers refer to the chain shown, from its start. pIC50: −log10 of the molar value. Read-outs that look alike come from different tables or passages of the source.

Assays:
androgen receptor = experiment: Whole-cell competition binding assay using 3H-R1881; settings: whole cells; mutant AR and WT-AR
[1] = tested on: LNCaP (AR-T877A) xenograft; experiment: LNCaP xenograft model of prostate cancer in mice; format: in vivo; settings: LNCaP (AR-T877A) xenograft; concentrations comparable to MDV3100
Source text: Our goal in this example is to identify small molecules that block activity of mutant androgen receptors (ARs) but not wild type AR, by synthesizing a library of compounds, to explore possible mechanisms of action, and to evaluate therapeutic potential. A total of 75 tetra-aryl substituted cyclobutanes (CBs) were synthesized. FIG. 18 illustrates a general reaction scheme for the synthesis of some of these compounds from the photo cycloaddition of 2,4-dichloro-6-styrylpyrimidine. FIG. 19 illustrates a general reaction scheme for the synthesis from the photo cycloaddition of 2,4-disubstituted 6-styrylpyrimidines. LNCaP cell proliferation was evaluated. LNCaP cells are a cell line of human cells commonly used in the field of oncology. LNCaP cells are androgen-sensitive human prostate adenocarcinoma cells derived from the left supraclavicular lymph node metastasis from a person in 1977. They are adherent epithelial cells growing in aggregates and as single cells. […] . FIGS. 21A, B, C, and D are graphic summaries of the results for cyclobutane compound CB-7. […] Prostate cancer was the most common tumor among men in the United States in 2012, with over 240,000 diagnoses and approximately 28,000 deaths. […] . FIG. 23 illustrates the androgen receptor ligand binding domain bound to testosterone. FIG. 24 illustrates mouse survival data from a mutant androgen receptor-T877A xenograft experiment for CB-7 at various concentrations. […] . FIGS. 25A and B provide data on AR mutant selectivity for compounds CB-1 to CB-8. […] It is seen that the cyclobutanes show selectivity of mutant androgen receptor activation in the luciferase transcriptional assay in CV-1 cells (a commercially available cell line derived from the kidney of an African green monkey). FIGS. 26 and 27A and B illustrate data from a ligand competition assay for compounds CB-1, CB-6, and CB-7.
Based on the above results, we further evaluated the effects of CB 10 in vivo. […] We also utilized a traditional in vivo model of prostate cancer, the LNCaP xenograft model.

AR = molecular target: T1, AR (Homo sapiens, UniProt P10275); experiment: AR relative binding affinity (RBA)
T1 sequence (P10275 1-920): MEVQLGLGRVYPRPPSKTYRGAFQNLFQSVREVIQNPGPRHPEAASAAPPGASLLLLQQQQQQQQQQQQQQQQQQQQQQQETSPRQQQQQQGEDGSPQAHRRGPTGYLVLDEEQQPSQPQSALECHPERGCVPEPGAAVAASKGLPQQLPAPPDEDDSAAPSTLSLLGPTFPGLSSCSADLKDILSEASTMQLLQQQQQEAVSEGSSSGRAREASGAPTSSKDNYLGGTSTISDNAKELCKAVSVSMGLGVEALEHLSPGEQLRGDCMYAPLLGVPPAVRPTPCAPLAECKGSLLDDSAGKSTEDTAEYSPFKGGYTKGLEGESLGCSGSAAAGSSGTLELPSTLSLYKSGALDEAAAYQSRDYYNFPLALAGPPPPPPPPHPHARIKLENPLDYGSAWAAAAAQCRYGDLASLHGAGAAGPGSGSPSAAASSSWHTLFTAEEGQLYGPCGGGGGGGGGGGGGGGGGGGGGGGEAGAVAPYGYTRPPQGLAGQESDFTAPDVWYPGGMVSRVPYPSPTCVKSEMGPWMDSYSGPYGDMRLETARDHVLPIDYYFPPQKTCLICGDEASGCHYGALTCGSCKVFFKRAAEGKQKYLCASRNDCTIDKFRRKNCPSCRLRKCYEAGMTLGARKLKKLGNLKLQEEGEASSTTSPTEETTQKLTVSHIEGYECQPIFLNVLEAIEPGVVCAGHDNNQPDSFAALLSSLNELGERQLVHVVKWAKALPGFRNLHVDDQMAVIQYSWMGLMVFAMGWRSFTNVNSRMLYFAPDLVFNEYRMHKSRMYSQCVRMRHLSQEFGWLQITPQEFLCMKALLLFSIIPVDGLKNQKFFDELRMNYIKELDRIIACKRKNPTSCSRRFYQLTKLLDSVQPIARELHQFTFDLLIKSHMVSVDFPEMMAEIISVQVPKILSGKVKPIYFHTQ

T877A (LNCaP) AR = molecular target: T2, T877A (LNCaP) AR (Homo sapiens, UniProt P10275, T878A); experiment: MMTV-luciferase transcription assay in CV-1 cells, T877A AR; format: cell-based; settings: for AR antagonism, potency in words (structure-activity discussion): MMTV transcription assay in CV-1 cells, compared with 1
T2 construct: expressed in transfected cells; host or cells: CV-1
T2 sequence (P10275 1-920 T878A): T1 sequence (P10275 1-920) with T878A
Source text: (§1) These compounds were screened using an AR-responsive MMTV transcription assay in CV-1 cells, utilizing both wild type and T877A (LNCaP) AR. […]

W741C AR = molecular target: T3, W741C AR (Homo sapiens, UniProt P10275, W742C); experiment: MMTV-luciferase transcription assay in CV-1 cells, W741C AR
T3 sequence (P10275 1-920 W742C): T1 sequence (P10275 1-920) with W742C

wild type AR = molecular target: T4, wild type AR (Homo sapiens, UniProt P10275); experiment: MMTV-luciferase transcription assay in CV-1 cells, wild type AR; format: cell-based
T4 construct: expressed in transfected cells; host or cells: CV-1
T4 sequence (P10275 1-920): T1 sequence (P10275 1-920)
Source text: as §1

CCCNc1cc([C@H]2[C@H](c3ccccc3)[C@@H](c3cc(NCCC)nc(NCCC)n3)[C@H]2c2ccccc2)nc(NCCC)n1 [CB-1]
competition with 3H-R1881 for binding to AR (androgen receptor): compete with 3H-R1881

CC(C)CNc1cc([C@H]2[C@@H](c3ccccc3)[C@H](c3cc(NCC(C)C)nc(NCC(C)C)n3)[C@@H]2c2ccccc2)nc(NCc2cccc3ccccc23)n1 [CB-6]
competition with 3H-R1881 for binding to AR (androgen receptor): compete with 3H-R1881

COc1ccc(CNc2cc([C@H]3[C@H](c4ccccc4)[C@H](c4cc(NCc5ccc(OC)cc5)nc(NCc5ccc(OC)cc5)n4)[C@H]3c3ccccc3)nc(NCc3ccc(OC)cc3)n2)cc1 [CB-7]
competition with 3H-R1881 for binding to AR (androgen receptor): compete with 3H-R1881 | survival of mice [1]: increases survival of mice | tumor size [1]: decreases tumor size

COc1cc([C@H]2[C@H](c3ccccc3)[C@@H](c3cc(OC)nc(OC)n3)[C@H]2c2ccccc2)nc(OC)n1 [CB-31]
AR RBA (AR): 0.046%

CSc1cc([C@H]2[C@H](c3ccccc3)[C@H](c3cc(SC)nc(SC)n3)[C@H]2c2ccccc2)nc(SC)n1 [CB-34]
AR RBA (AR): 0.002%

CSc1cc([C@H]2[C@H](c3ccccc3)[C@@H](c3cc(SC)nc(SC)n3)[C@H]2c2ccccc2)nc(SC)n1 [CB-35]
AR RBA (AR): 0.027%

COc1cc([C@H]2[C@@H](c3ccccc3)[C@H](c3cc(=O)[nH]c(=O)[nH]3)[C@@H]2c2ccccc2)nc(OC)n1 [CB-45]
AR RBA (AR): 0.087%

COc1cc([C@H]2[C@@H](c3ccccc3)[C@@H](c3cc(=O)[nH]c(=O)[nH]3)[C@@H]2c2ccccc2)nc(OC)n1 [CB-46]
AR RBA (AR): 0.065%

O=c1cc([C@H]2[C@H](c3ccccc3)[C@@H](c3cc(=O)[nH]c(=O)[nH]3)[C@H]2c2ccccc2)[nH]c(=O)[nH]1 [CB-48]
AR RBA (AR): 0.023%

CCc1cc([C@H]2[C@H](c3ccccc3)[C@H](c3cc(CC)nc(CC)n3)[C@H]2c2ccccc2)nc(CC)n1 [CB-50]
AR RBA (AR): 0.029%

CNc1cc([C@H]2[C@H](c3ccccc3)[C@H](c3cc(NC)nc(NC)n3)[C@H]2c2ccccc2)nc(NC)n1 [CB-51]
pIC50 (T877A (LNCaP) AR; CV1 transient transfection, MMTV-Luciferase reporter, read-out: IC50 T877A): < 4.70 | IC50 W741C (W741C AR; CV1 transient transfection, MMTV-Luciferase reporter): Toxic | pIC50 (wild type AR; CV1 transient transfection, MMTV-Luciferase reporter, read-out: IC50 WT): < 4.70

Clc1nccc([C@H]2[C@H](c3ccccc3)[C@@H](c3ccnc(Cl)n3)[C@H]2c2ccccc2)n1 [DPM-21]
increase in potency for T877A mutant over WT (T877A (LNCaP) AR; AR-dependent luciferase transcription assay in CV-1 cells): approximately 100 fold | IC50 lower than 1 (T877A (LNCaP) AR; T877A AR): approximately 10 fold | pIC50 (T877A (LNCaP) AR; read-out: IC50 for T877A AR): ~7.00 | increase in potency for W741C AR over WT receptor (W741C AR; AR-dependent luciferase transfection assay): approximately 10 fold

Clc1cc([C@H]2[C@H](c3ccc(-c4ccccc4)cc3)[C@H](c3cc(Cl)nc(Cl)n3)[C@H]2c2ccc(-c3ccccc3)cc2)nc(Cl)n1 [DPM-27]
AR antagonism, potency in words (structure-activity discussion) (T877A (LNCaP) AR): inactive | MMTV transcription assay in CV-1 cells T877A (IC50 / inhibition) (T877A (LNCaP) AR; T877A AR, values given as powers of ten without unit, or in words): No inhibition | MMTV transcription assay in CV-1 cells WT (IC50 / inhibition) (wild type AR; wild type AR, values given as powers of ten without unit, or in words): No inhibition

Cc1cc([C@H]2[C@H](c3ccccc3)[C@H](c3cc(C)nc(Cl)n3)[C@H]2c2ccccc2)nc(Cl)n1 [DPM-30]
AR antagonism, potency in words (structure-activity discussion) (T877A (LNCaP) AR): comparable potency to 1 | IC50 (T877A (LNCaP) AR; T877A AR, values given in μM, read-out: MMTV transcription assay in CV-1 cells T877A (IC50)): 2.89 µM | IC50 (wild type AR; wild type AR, values given in μM, read-out: MMTV transcription assay in CV-1 cells WT (IC50)): 17 µM
